How the values were obtained:
Format in all cases: cell-based
CCRF-CEM = assay: In vitro cytotoxicity, NCI sixty cell line screen: CCRF-CEM (Leukemia); conditions: Homo sapiens, Leukemia panel, NCI protocol, read-out: GI50 values (μM conc.)
Experimental: (§1) The in vitro anticancer activity studies for these amidobenzothiazoles were carried out at the National Cancer Institute, Maryland, USA.
(§2) The amidobenzothiazoles have been tested against sixty human tumor cell lines derived from nine cancer types (leukemia cancer cell line, non-small cell lung cancer cell line, colon cancer cell line, CNS cancer cell line, melanoma cancer cell line, ovarian cancer cell line, renal cancer cell line, prostate cancer cell line and breast cancer cell lines). For these compounds results are expressed in GI50 values of that particular cancer cell at micro molar (μM) concentration as per NCI protocol.

K-562 = assay: In vitro cytotoxicity, NCI screen: K-562 (Leukemia); conditions: Homo sapiens, K562; read-out: GI50 values (μM conc.)
Experimental: as §1, §2

RPMI-8226 = assay: In vitro cytotoxicity, NCI screen: RPMI-8226 (Leukemia); conditions: Homo sapiens; RPMI-8226, Leukemia panel, NCI protocol; read-out: GI50 values (μM conc.)
Experimental: as §1, §2

A549/ATCC = assay: In vitro cytotoxicity, NCI screen: A549/ATCC (Non-small cell lung); conditions: Homo sapiens, Non-small cell lung panel, NCI protocol, read-out: GI50 values (μM conc.)
Experimental: as §1, §2

EKVX = assay: In vitro cytotoxicity, NCI screen: EKVX (Non-small cell lung); conditions: Homo sapiens, Non-small cell lung panel, NCI protocol, read-out: GI50 values (μM conc.)
Experimental: as §1, §2

HOP-62 = assay: In vitro cytotoxicity, NCI screen: HOP-62 (Non-small cell lung); conditions: Homo sapiens; HOP-62, Non-small cell lung panel, NCI protocol; read-out: GI50 values (μM conc.)
Experimental: as §1, §2

NCI-H226 = assay: In vitro cytotoxicity, NCI screen: NCI-H226 (Non-small cell lung); conditions: Homo sapiens; NCI-H226, Non-small cell lung panel, NCI protocol; read-out: GI50 values (μM conc.)
Experimental: as §1, §2

NCI-H23 = assay: In vitro cytotoxicity, NCI screen: NCI-H23 (Non-small cell lung); conditions: Homo sapiens; NCI-H23, Non-small cell lung panel, NCI protocol; read-out: GI50 values (μM conc.)
Experimental: as §1, §2

NCI-H460 = assay: In vitro cytotoxicity, NCI screen: NCI-H460 (Non-small cell lung); conditions: Homo sapiens; NCI-H460, Non-small cell lung panel, NCI protocol; read-out: GI50 values (μM conc.)
Experimental: as §1, §2

HCC-2998 = assay: In vitro cytotoxicity, NCI screen: HCC-2998 (Colon); conditions: Homo sapiens; HCC-2998, Colon panel, NCI protocol; read-out: GI50 values (μM conc.)
Experimental: as §1, §2

HCT-15 = assay: In vitro cytotoxicity, NCI screen: HCT-15 (Colon); conditions: Homo sapiens; HCT-15, Colon panel, NCI protocol; read-out: GI50 values (μM conc.)
Experimental: as §1, §2

KM12 = assay: In vitro cytotoxicity, NCI screen: KM12 (Colon); conditions: Homo sapiens; KM12, Colon panel, NCI protocol; read-out: GI50 values (μM conc.)
Experimental: as §1, §2

SW-620 = assay: In vitro cytotoxicity, NCI screen: SW-620 (Colon); conditions: Homo sapiens; SW-620, Colon panel, NCI protocol; read-out: GI50 values (μM conc.)
Experimental: as §1, §2

SF-268 = assay: In vitro cytotoxicity, NCI screen: SF-268 (CNS); conditions: Homo sapiens, read-out: GI50 values (μM conc.)
Experimental: as §1, §2

SF-295 = assay: In vitro cytotoxicity, NCI screen: SF-295 (CNS); conditions: Homo sapiens; SF-295, CNS panel, NCI protocol; read-out: GI50 values (μM conc.)
Experimental: as §1, §2

SF-539 = assay: In vitro cytotoxicity, NCI screen: SF-539 (CNS); conditions: Homo sapiens, read-out: GI50 values (μM conc.)
Experimental: as §1, §2

U251 = assay: In vitro cytotoxicity, NCI screen: U251 (CNS); conditions: Homo sapiens, U-251; U251, CNS panel, NCI protocol; read-out: GI50 values (μM conc.)
Experimental: as §1, §2

MALME-3M = assay: In vitro cytotoxicity, NCI screen: MALME-3M (Melanoma); conditions: Homo sapiens, Melanoma panel, NCI protocol, read-out: GI50 values (μM conc.)
Experimental: as §1, §2

M14 = assay: In vitro cytotoxicity, NCI screen: M14 (Melanoma); conditions: Homo sapiens; M14, Melanoma panel, NCI protocol; read-out: GI50 values (μM conc.)
Experimental: as §1, §2

SK-MEL-2 = assay: In vitro cytotoxicity, NCI screen: SK-MEL-2 (Melanoma); conditions: Homo sapiens; SK-MEL-2, Melanoma panel, NCI protocol; read-out: GI50 values (μM conc.)
Experimental: as §1, §2

UACC-257 = assay: In vitro cytotoxicity, NCI screen: UACC-257 (Melanoma); conditions: Homo sapiens; UACC-257, Melanoma panel, NCI protocol; read-out: GI50 values (μM conc.)
Experimental: as §1, §2

IGROV1 = assay: In vitro cytotoxicity, NCI screen: IGROV1 (Ovarian); conditions: Homo sapiens, IGROV-1; IGROV1, Ovarian panel, NCI protocol; read-out: GI50 values (μM conc.)
Experimental: as §1, §2

OVCAR-5 = assay: In vitro cytotoxicity, NCI screen: OVCAR-5 (Ovarian); conditions: Homo sapiens; OVCAR-5, Ovarian panel, NCI protocol; read-out: GI50 values (μM conc.)
Experimental: as §1, §2

OVCAR-8 = assay: In vitro cytotoxicity, NCI screen: OVCAR-8 (Ovarian); conditions: Homo sapiens; OVCAR-8, Ovarian panel, NCI protocol; read-out: GI50 values (μM conc.)
Experimental: as §1, §2

NCI/ADR-RES = assay: In vitro cytotoxicity, NCI screen: NCI/ADR-RES (Ovarian); conditions: Homo sapiens, Ovarian panel, NCI protocol, read-out: GI50 values (μM conc.)
Experimental: as §1, §2

SK-OV-3 = assay: In vitro cytotoxicity, NCI screen: SK-OV-3 (Ovarian); conditions: Homo sapiens; SK-OV-3, Ovarian panel, NCI protocol; read-out: GI50 values (μM conc.)
Experimental: as §1, §2

786-0 = assay: In vitro cytotoxicity, NCI screen: 786-0 (Renal); conditions: Homo sapiens; 786-0, Renal panel, NCI protocol; read-out: GI50 values (μM conc.)
Experimental: as §1, §2

A498 = assay: In vitro cytotoxicity, NCI screen: A498 (Renal); conditions: Homo sapiens; A498, Renal panel, NCI protocol; read-out: GI50 values (μM conc.)
Experimental: as §1, §2

MDA-MB-231/ATCC = assay: In vitro cytotoxicity, NCI screen: MDA-MB-231/ATCC (Breast); conditions: Homo sapiens, Breast panel, NCI protocol, read-out: GI50 values (μM conc.)
Experimental: as §1, §2

T-47D = assay: In vitro cytotoxicity, NCI screen: T-47D (Breast); conditions: Homo sapiens, T47D, Breast panel, NCI protocol, read-out: GI50 values (μM conc.)
Experimental: as §1, §2

CNS cancer cell lines = assay: In vitro activity against CNS cancer cell lines (panel range); conditions: Homo sapiens, read-out: GI50 values, range over the listed compounds and the panel
Experimental: as §1, §2

[1] = system: prostate cancer cell lines; assay: In vitro activity against prostate cancer cell lines (panel range); conditions: Homo sapiens, read-out: GI50 values, range over the listed compounds and the panel
Experimental: as §1, §2

Structure (SMILES)	GI50 (CCRF-CEM) [µM]	GI50 (K-562) [µM]	GI50 (RPMI-8226) [µM]	GI50 (A549/ATCC) [µM]	GI50 (EKVX) [µM]	GI50 (HOP-62) [µM]	GI50 (NCI-H226) [µM]	GI50 (NCI-H23) [µM]	GI50 (NCI-H460) [µM]	GI50 (HCC-2998) [µM]	GI50 (HCT-15) [µM]	GI50 (KM12) [µM]	GI50 (SW-620) [µM]	GI50 (SF-268) [µM]	GI50 (SF-295) [µM]	GI50 (SF-539) [µM]	GI50 (U251) [µM]	GI50 (MALME-3M) [µM]	GI50 (M14) [µM]	GI50 (SK-MEL-2) [µM]	other results
COc1ccc2nc(NC(=O)COc3cc(/C=C\c4cc(OC)c(OC)c(OC)c4)ccc3OC)sc2c1 [Compound 8g, N1-(6-methoxy-1,3-benzothiazol-2-yl)-2-{2-methoxy-5-[(Z)-2-(3,4,5-trimethoxyphenyl)-1-ethenyl]phenoxy}acetamide]	3.87	3.6	5.43	5.19	5.11	23	4.51	3.91	3.73	7.34	2.89	3.12	5.1	4.31	1.84	2.84	4	> 100	4.33	4.07	GI50 (UACC-257): 63 µM; GI50 (IGROV1): 7 µM; GI50 (OVCAR-5): 5.89 µM; GI50 (OVCAR-8): 5.28 µM; GI50 (NCI/ADR-RES): 2.3 µM; GI50 (SK-OV-3): 4.69 µM; GI50 (786-0): 7.52 µM; GI50 (A498): 3.5 µM; GI50 (MDA-MB-231/ATCC): 5.4 µM; GI50 (T-47D): 4.03 µM; GI50 (CNS cancer cell lines): 0.045 to 18.8 µM; GI50 [1]: 0.18 to 22.9 µM
COc1ccc(/C=C\c2cc(OC)c(OC)c(OC)c2)cc1OCC(=O)Nc1nc2ccc(F)cc2s1 [Compound 8e, N1-(6-fluoro-1,3-benzothiazol-2-yl)-2-{2-methoxy-5-[(Z)-2-(3,4,5-trimethoxyphenyl)-1-ethenyl]phenoxy}acetamide]	3.7	3.62	6.36	5.99	5.72	5.7	5.6	4.26	4.36	> 100	8.19	4.78	65	7.23	4.29	4.51	4.33	5.22	6.82	8.46	GI50 (UACC-257): 8.69 µM; GI50 (IGROV1): 4.17 µM; GI50 (OVCAR-5): > 100 µM; GI50 (OVCAR-8): 7.15 µM; GI50 (NCI/ADR-RES): 2.55 µM; GI50 (SK-OV-3): 8 µM; GI50 (786-0): 7.12 µM; GI50 (A498): 6.25 µM; GI50 (MDA-MB-231/ATCC): 9.34 µM; GI50 (T-47D): 3.39 µM; GI50 (CNS cancer cell lines): 0.045 to 18.8 µM; GI50 [1]: 0.18 to 22.9 µM
